Tests used:
Format in all cases: in vivo
[1] = system: undesirable plants of both the monocotyledonous and the dicotyledonous species; assay: Herbicidal activity, general; settings: for herbicidal activity: 16 pounds per acre
Excerpt: All of the 3-substituted compounds of the pyrido [3,2-d]pyrimidine-2,4(1H,3H)-dione and lumazine families made from intermediate amides produced by the method of this invention have an unexpectedly high order of herbicidal activity.
In using the compound, seeds of the types of plants set forth in Table II were sown in fresh soil. In the preemergence test the soil was sprayed with a solution of the test compound immediately after the seeds were planted, and before any noticeable growth developed. The solution was about a 2 percent by weight solution of the compound in acetone and/or alcohol. The compound was applied at the rate of 16 pounds per acre of soil surface.
Approximately 3 weeks after spray application, the herbicidal activity of the compound was determined by visual observation of the treated area in comparison with untreated control areas. These observations are reported below in Table II wherein the average activity rating is reported as the percent control of plant growth.
In the postemergence test the soil and developing plants were sprayed approximately 2 weeks after the seeds were sown. The compound was applied at the rate of 8 pounds per acre from about a 2 percent by weight solution of the test compound in acetone and/or alcohol. The postemergence herbicidal activity was measured in the same way as the preemergence activity; i.e. visual observation approximately 11 days after spraying, and expressed as the percent control of plant growth.

Chickweed [2] = assay: Preemergence herbicidal activity, % control of plant growth; settings: pre-emergence, 504 h, 16 lb/acre, about 3 weeks
In short: (§1)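 Application rate 16 lb/acre to soil surface, immediately after seeds were planted and before visible growth; spray solution about 2 percent by weight in acetone and/or alcohol. Visual assessment ~3 weeks later.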

Barnyard Grass [3] = assay: as above; settings: Echinochloa crus-galli, pre-emergence, 504 h; barnyard grass; 16 lb/acre; about 3 weeks
In short: as §1

Yellow Rocket [4] = assay: as above; settings: pre-emergence, 504 h, 16 lb/acre, about 3 weeks
In short: as §1

Nutgrass [5] = assay: as above; settings: pre-emergence, 504 h, 16 lb/acre, about 3 weeks
In short: as §1

Cheatgrass [6] = assay: as above; settings: Bromus tectorum, pre-emergence, 504 h, 16 lb/acre, about 3 weeks
In short: as §1

Corn [7] = assay: as above; settings: Zea mays, pre-emergence, 504 h, 16 lb/acre, about 3 weeks
In short: as §1

Wild Oats [8] = assay: as above; settings: Avena fatua, pre-emergence, 504 h, 16 lb/acre, about 3 weeks
In short: as §1

Pigweed [9] = assay: as above; settings: Amaranthus retroflexus, pre-emergence, 504 h, 16 lb/acre, about 3 weeks
In short: as §1

Johnsongrass [10] = assay: as above; settings: Sorghum halepense, pre-emergence, 504 h, 16 lb/acre, about 3 weeks
In short: as §1

Alfalfa [11] = assay: as above; settings: Medicago sativa, pre-emergence, 504 h, 16 lb/acre, about 3 weeks
In short: as §1

Foxtail [12] = assay: as above; settings: Setaria, pre-emergence, 504 h, 16 lb/acre, about 3 weeks
In short: as §1

Snapbeans [13] = assay: as above; settings: pre-emergence, 504 h, 16 lb/acre, about 3 weeks
In short: as §1

Cucumber [14] = assay: as above; settings: Cucumis sativus, pre-emergence, 504 h, 16 lb/acre, about 3 weeks
In short: as §1

Crabgrass [15] = assay: as above; settings: Digitaria sanguinalis, pre-emergence, 504 h, 16 lb/acre, about 3 weeks
In short: as §1

Curled Dock [16] = assay: as above; settings: pre-emergence, 504 h, 16 lb/acre, about 3 weeks
In short: as §1

Lambsquarters [17] = assay: as above; settings: Chenopodium album, pre-emergence, 504 h, 16 lb/acre, about 3 weeks
In short: as §1

Velvetleaf [18] = assay: as above; settings: Abutilon theophrasti, pre-emergence, 504 h, 16 lb/acre, about 3 weeks
In short: as §1

Chickweed [19] = assay: Postemergence herbicidal activity, % control of plant growth; settings: post-emergence, 264 h, 8 lb/acre, about 11 days
In short: (§2)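 Growing plants, together with the soil around them, received a spray of about 2 wt% compound in acetone and/or alcohol at 8 pounds per acre, approximately 2 weeks from seeding. Roughly 11 days on, percent control was assessed by eye.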

Barnyard Grass [20] = assay: as above; settings: Echinochloa crus-galli, post-emergence, 264 h, 8 lb/acre, about 11 days
In short: as §2

Yellow Rocket [21] = assay: as above; settings: post-emergence, 264 h, 8 lb/acre, about 11 days
In short: as §2

Nutgrass [22] = assay: as above; settings: post-emergence, 264 h, 8 lb/acre, about 11 days
In short: as §2

Cheatgrass [23] = assay: as above; settings: Bromus tectorum, post-emergence, 264 h, 8 lb/acre, about 11 days
In short: as §2

Corn [24] = assay: as above; settings: Zea mays, post-emergence, 264 h, 8 lb/acre, about 11 days
In short: as §2

Wild Oats [25] = assay: as above; settings: Avena fatua, post-emergence, 264 h, 8 lb/acre, about 11 days
In short: as §2

Pigweed [26] = assay: as above; settings: Amaranthus retroflexus, post-emergence, 264 h, 8 lb/acre, about 11 days
In short: as §2

Johnsongrass [27] = assay: as above; settings: Sorghum halepense, post-emergence, 264 h, 8 lb/acre, about 11 days
In short: as §2

Alfalfa [28] = assay: as above; settings: Medicago sativa, post-emergence, 264 h, 8 lb/acre, about 11 days
In short: as §2

Foxtail [29] = assay: as above; settings: Setaria, post-emergence, 264 h, 8 lb/acre, about 11 days
In short: as §2

Snapbeans [30] = assay: as above; settings: post-emergence, 264 h, 8 lb/acre, about 11 days
In short: as §2

Cucumber [31] = assay: as above; settings: Cucumis sativus, post-emergence, 264 h, 8 lb/acre, about 11 days
In short: as §2

Crabgrass [32] = assay: as above; settings: Digitaria sanguinalis, post-emergence, 264 h, 8 lb/acre, about 11 days
In short: as §2

Curled Dock [33] = assay: as above; settings: post-emergence, 264 h, 8 lb/acre, about 11 days
In short: as §2

Lambsquarters [34] = assay: as above; settings: Chenopodium album, post-emergence, 264 h, 8 lb/acre, about 11 days
In short: as §2

Velvetleaf [35] = assay: as above; settings: Abutilon theophrasti, post-emergence, 264 h, 8 lb/acre, about 11 days
In short: as §2

Compound	herbicidal activity [1]	pest or weed control at 17933.6 g/ha (Chickweed [2])	pest or weed control at 17933.6 g/ha (Barnyard Grass [3])	pest or weed control at 17933.6 g/ha (Yellow Rocket [4])	pest or weed control at 17933.6 g/ha (Nutgrass [5])	pest or weed control at 17933.6 g/ha (Cheatgrass [6])	plant injury at 17933.6 g/ha (Corn [7])	pest or weed control at 17933.6 g/ha (Wild Oats [8])	pest or weed control at 17933.6 g/ha (Pigweed [9])	pest or weed control at 17933.6 g/ha (Johnsongrass [10])	pest or weed control at 17933.6 g/ha (Alfalfa [11])	pest or weed control at 17933.6 g/ha (Foxtail [12])	pest or weed control at 17933.6 g/ha (Snapbeans [13])	pest or weed control at 17933.6 g/ha (Cucumber [14])	pest or weed control at 17933.6 g/ha (Crabgrass [15])	pest or weed control at 17933.6 g/ha (Curled Dock [16])	pest or weed control at 17933.6 g/ha (Lambsquarters [17])	pest or weed control at 17933.6 g/ha (Velvetleaf [18])	pest or weed control at 8966.8 g/ha (Chickweed [19])	pest or weed control at 8966.8 g/ha (Barnyard Grass [20])	further results
O=c1[nH]c2ncccc2c(=O)n1C1CCCCC1 [3-cyclohexyl-pyrido[2,3-d]pyrimidine-2,4-(1H,3H)-dione]	no appreciable herbicidal activity	–	–	–	–	–	–	–	–	–	–	–	–	–	–	–	–	–	–	–	–
CC(C)n1c(=O)[nH]c2ncccc2c1=O [3-isopropyl-pyrido[2,3-d]pyrimidine-2,4(1H,3H)-dione]	no appreciable herbicidal activity	–	–	–	–	–	–	–	–	–	–	–	–	–	–	–	–	–	–	–	order of herbicidal activity ([1]; in vivo): no appreciable activity
CC(C)n1c(=O)[nH]c2cnccc2c1=O [3-isopropyl-pyrido[3,4-d]pyrimidine-2,4(1H,3H)-dione]	no appreciable herbicidal activity	–	–	–	–	–	–	–	–	–	–	–	–	–	–	–	–	–	–	–	–
CC(C)n1c(=O)[nH]c2ccncc2c1=O [3-isopropyl-pyrido[4,3-d]pyrimidine-2,4(1H,3H)-dione]	no appreciable herbicidal activity	–	–	–	–	–	–	–	–	–	–	–	–	–	–	–	–	–	–	–	–
O=c1[nH]c2ncccc2c(=O)n1-c1ccccc1 [3-phenyl-pyrido[2,3-d]pyrimidine-2,4(1H,3H)-dione]	no appreciable herbicidal activity	–	–	–	–	–	–	–	–	–	–	–	–	–	–	–	–	–	–	–	–
O=c1[nH]c2nccnc2c(=O)n1C1CCCCC1 [Lumazine, 3-cyclohexyl]	–	100%	20%	100%	100%	10%	40%	20%	100%	30%	100%	20%	100%	100%	80%	90%	100%	100%	90%	10%	pest or weed control at 8966.8 g/ha (Yellow Rocket [21]): 100%; pest or weed control at 8966.8 g/ha (Nutgrass [22]): 100%; pest or weed control at 8966.8 g/ha (Cheatgrass [23]): 50%; plant injury at 8966.8 g/ha (Corn [24]): 10%; pest or weed control at 8966.8 g/ha (Wild Oats [25]): 10%; pest or weed control at 8966.8 g/ha (Pigweed [26]): 90%; pest or weed control at 8966.8 g/ha (Johnsongrass [27]): 20%; pest or weed control at 8966.8 g/ha (Alfalfa [28]): 100%; pest or weed control at 8966.8 g/ha (Foxtail [29]): 10%; pest or weed control at 8966.8 g/ha (Snapbeans [30]): 100%; pest or weed control at 8966.8 g/ha (Cucumber [31]): 100%; pest or weed control at 8966.8 g/ha (Crabgrass [32]): 20%; pest or weed control at 8966.8 g/ha (Curled Dock [33]): 100%; pest or weed control at 8966.8 g/ha (Lambsquarters [34]): 100%; pest or weed control at 8966.8 g/ha (Velvetleaf [35]): 100%
CCC(C)n1c(=O)[nH]c2nccnc2c1=O (stereo not drawn) [Lumazine, 3-sec-butyl]	–	40%	40%	100%	40%	90%	10%	30%	100%	40%	100%	30%	90%	10%	100%	70%	100%	100%	0%	0%	pest or weed control at 8966.8 g/ha (Yellow Rocket [21]): 100%; pest or weed control at 8966.8 g/ha (Nutgrass [22]): 0%; pest or weed control at 8966.8 g/ha (Cheatgrass [23]): 0%; plant injury at 8966.8 g/ha (Corn [24]): 0%; pest or weed control at 8966.8 g/ha (Wild Oats [25]): 0%; pest or weed control at 8966.8 g/ha (Pigweed [26]): 20%; pest or weed control at 8966.8 g/ha (Johnsongrass [27]): 0%; pest or weed control at 8966.8 g/ha (Alfalfa [28]): 50%; pest or weed control at 8966.8 g/ha (Foxtail [29]): 0%; pest or weed control at 8966.8 g/ha (Snapbeans [30]): 20%; pest or weed control at 8966.8 g/ha (Cucumber [31]): 60%; pest or weed control at 8966.8 g/ha (Crabgrass [32]): 0%; pest or weed control at 8966.8 g/ha (Curled Dock [33]): 50%; pest or weed control at 8966.8 g/ha (Lambsquarters [34]): 100%; pest or weed control at 8966.8 g/ha (Velvetleaf [35]): 90%
O=c1[nH]c(=O)c2ncccc2[nH]1 [pyrido[3,2-d]pyrimidine-2,4(1H,3H)-dione, reference compound]	–	0%	0%	0%	0%	0%	0%	0%	0%	0%	0%	0%	0%	0%	0%	0%	0%	0%	0%	0%	pest or weed control at 8966.8 g/ha (Yellow Rocket [21]): 0%; pest or weed control at 8966.8 g/ha (Nutgrass [22]): 0%; pest or weed control at 8966.8 g/ha (Cheatgrass [23]): 0%; plant injury at 8966.8 g/ha (Corn [24]): 0%; pest or weed control at 8966.8 g/ha (Wild Oats [25]): 0%; pest or weed control at 8966.8 g/ha (Pigweed [26]): 0%; pest or weed control at 8966.8 g/ha (Johnsongrass [27]): 0%; pest or weed control at 8966.8 g/ha (Alfalfa [28]): 0%; pest or weed control at 8966.8 g/ha (Foxtail [29]): 0%; pest or weed control at 8966.8 g/ha (Snapbeans [30]): 0%; pest or weed control at 8966.8 g/ha (Cucumber [31]): 0%; pest or weed control at 8966.8 g/ha (Crabgrass [32]): 0%; pest or weed control at 8966.8 g/ha (Curled Dock [33]): 0%; pest or weed control at 8966.8 g/ha (Lambsquarters [34]): 0%; pest or weed control at 8966.8 g/ha (Velvetleaf [35]): 0%
